Measured values from patent US11001562B2, “Near-infrared fluorescent nerve contrast agents and methods of use thereof” (Beth Israel Deaconess Medical Center, priority 2013, dated 2021).
“Also recorded” adds a separate entry of the source.

What was measured:
[1] = tested on: pig sciatic nerve tissue cross sections; test: Ex vivo nerve-specific fluorophore screening on nerve tissue sections; conditions: 100 μM fluorophore, 20 min incubation, pig sciatic nerve sections
Procedure: Phase contrast image (top) and fluorescence image (bottom) of nerve tissue sections incubated with 100 μM of test fluorophores are shown. Nerve-specific fluorescence intensity was determined using staining of pig sciatic nerve cut in cross section. Nerve tissue sections were incubated in 30% FBS solutions without (negative control, autofluorescence only) and with each fluorophore. As a positive control, previously reported nerve-specific BMB was used. Shown are phase contrast image (top) and fluorescence image (bottom) of nerve tissue sections incubated with 100 μM of each fluorophore. The control autofluorescence images were taken with equivalent exposure time and normalization. Arrowheads indicate fluorescence signals in nerve bundles. Ad=adipose tissue. Scale bars=200 μm. The SBR of each nerve relative to the neighboring adipose tissue was quantified and labeled as—, SBR<1; +, SBR=1−2; and ++, SBR >2.
Sciatic nerves from female Yorkshire pigs were harvested, fixed in 2% paraformaldehyde (PFA), and flash frozen in optimal cutting temperature (OCT) compound using liquid nitrogen. Nerve tissues were cut in cross section using a cryostat at […] thickness onto positively charge glass slides. Tissue sections were washed once with phosphate buffered saline (PBS) for 2 min to remove residual OCT. The tissue was then fixed to the slide with 2% PFA for 15 min, followed by washing with PBS (3×5 min). A formulation was previously developed for intravenous (IV) administration and was used in the current study to incubate the fluorophores with the nerve tissue (25). All fluorophores were mixed from the 100 mM stock solution into the IV formulation at 100 µM and incubated with the washed nerve tissue sections at room temperature for 20 min. Additional IV formulation not containing fluorophore was mixed and used to wash each nerve section twice (5 min per wash) following incubation with the formulated fluorophore. The nerve section was then washed an additional 2 times with PBS (5 min per each), after which coverslips were mounted using Fluoromount-G (Southern Biotech, Birmingham, Ala.).
NIR fluorescence microscopy for ex vivo nerve tissue slides was performed on a Nikon Eclipse TE300 microscope system as previously described (12, 19, 25). The microscope was equipped with a 100 W mercury light source, NIR-compatible optics, and a NIR-compatible 10× Plan Fluor objective lens and a 100× Plan Apo oil immersion objective lens (Nikon, Melville, N.Y.). Images were acquired on an Orca-AG (Hamamatsu, Bridgewater, N.J.). Image acquisition and analysis was performed using IPLab software (Scanalytics, Fairfax, Va.). A custom filter set (Chroma Technology Corporation, Brattleboro, Vt.) composed of a 650±22 nm excitation filter, a 675 nm dichroic mirror, and an 710±25 nm emission filter were used to detect Oxazine derivatives and Rhodamine 800 signals in the nerve tissue slides. For BMB, a mercury light source was passed through a 360±25 nm BP excitation filter, a 400 nm LP beam splitter, and a 550±50 nm emission filter.

[2] = tested on: rat brachial plexus and sciatic nerves; test: In vivo nerve-specificity screening with FLARE imaging
Description: The dual-NIR channel FLARE^a imaging system has been described in detail previously (26-28). In this study, a 670 nm excitation was used at a fluence rate of 4 mW/cm^2, with white light (400-650 nm) at 40,000 1×. Color and NIR fluorescence images were acquired simultaneously with custom software at rates up to 15 Hz over a 15 cm diameter field of view. A pseudo-colored lime green was used for NIR fluorescence in the color-NIR merged images. The imaging system was positioned at a distance of 18 inches from the surgical field.
(§1) Initial in vivo screening occurred in rats based on our previous study of BMB (Supplementary Methods) (25). For kinetic and dose-response studies, 50-400 nmol (0.8-6.3 mg/kg) of Oxazine 4 was injected intravenously into mice and measurements taken over 24 h. Control images were acquired prior to injecting NIR fluorophores. The fluorescence signal in nervous tissues and signal-to-background ratio (SBR) compared to neighboring muscle (Mu) were obtained over the period of imaging. For the large animal study, the optimal dose found in mice (200-400 nmol per mouse) was used in pigs by scaling to body surface area (29, 30).
Sprague-Dawley (SD) male rats weighing 250-300 g were purchased from Charles River Laboratories (Wilmington, Mass.). BMB, Oxazine 1, Oxazine 4, Oxazine 170, Oxazine 750, and Rhodamine 800 were initially screened to investigate nerve specificity in rats. For the initial screening, we administered a relatively high dose (2 mg/kg; 1 μmol) of each fluorophore intravenously. 4 h after injection, brachial plexus (BP) and sciatic nerve (SN) were imaged using the intraoperative FLARE^a system for in vivo nerve-specific fluorophores screening.

[3] = tested on: brachial plexus (BP) and sciatic nerves (SN) of CD-1 mice; test: Kinetics and dose-response of nerve targeting in small animals; type: in vivo, mouse
Procedure: 100 nmol (1.6 mg/kg) of Oxazine was injected intravenously into CD-1 mice, and SBR (BP/Mu) and SBR (SN/Mu) were measured at different time points (T=0, 1, 4, 6, 12, and 24 h). Arrowheads indicate fluorescence signals in nerve bundles. SG=salivary glands; Mu=muscle. Scale bars=1 cm. All NIR fluorescence images have identical exposure times (500 msec) and normalizations. B) Dose-response curve of SBR (mean±SEM) for BP and SN. 0, 50, 100, 200, and 400 nmol of Oxazine 4 were injected intravenously into CD-1 mice, and SBR (BP/Mu) and SBR (SN/Mu) were measured at 4 h post-injection. Arrowheads indicate fluorescence signals in nerve bundles. SG=salivary glands; Mu=muscle. Scale bars=1 cm. All NIR fluorescence images have identical exposure times (500 msec) and normalizations.
as §1
The fluorescence intensity (FI) and background (BG) intensity of a region of interest (ROI) over each nerve/tissue were calculated and quantified using custom FLARE^a software. The FI of the RLN, BP, and SN at the optimal dose and time point were quantified to measure tissue-specific targeting. Adjacent tissues such as trachea (Tr), thyroid (Th), tracheoesophageal groove (TEG), muscle (Mu), and adipose tissue (Ad) were used as background to calculate the SBR of RLN, BP, and SN in pigs. Statistical analysis was carried out using a one-way ANOVA followed by Tukey's multiple comparisons test. Results were presented as mean±S.D. and curve fitting was performed using Prism version 4.0a software (GraphPad, San Diego, Calif.).

[4] = comparison of structures in discussion

CC/N=c1/cc2oc3cc(NCC)c(C)cc3nc-2cc1C [Oxazine 4]
nerve-specific fluorescence signal in cross-sectioned nerve [1]: strong fluorescence signal throughout the cross-sectioned nerve
nerve-specific fluorescence signal in vivo ([2]; SD rats, 2 mg/kg (1 μmol) iv, 4 h after injection, brachial plexus and sciatic nerve, 2 mg/kg): highest nerve-specific fluorescence signal; also recorded: higher nerve-specific fluorescence signal
background (muscle and adipose tissue) fluorescence signal in vivo ([2]; SD rats, 2 mg/kg (1 μmol) iv, 4 h after injection, 2 mg/kg): lowest background; also recorded: lower background
adipose signal (discussion summary) [2, 4]: moderate adipose
nerve signal (discussion summary) [2, 4]: high nerve signal
time of highest SBR post-intravenous injection ([3]; 100 nmol (1.6 mg/kg) iv): 4 h
highest SBR (nerve/muscle) ([3]; 100 nmol (1.6 mg/kg) iv, 4 h post-injection, BP and SN): ≈ 3.0
SBR at 1 h post-injection ([3]; 100 nmol iv, 1 h): low
fluorescence signal in nervous tissues at 24 h post-injection ([3]; 100 nmol iv, 24 h): decayed at this time point to pre-injection levels
dose dependence of fluorescence signals in BP and SN ([3]; 50-400 nmol per mouse (0.8-6.3 mg/kg), 4 h post-injection): proportional to the injected dose
optimal dose ([3]; iv, 4 h post-injection): 200 nmol
